# Reference: patent US20240245085A1, “FLAVORING COMPOSITIONS FOR TASTE IMPROVEMENT” (SYMRISE AG, priority 2021, published 2024)
# Entries after “also recorded” stand apart in the source; their conditions may differ.
# Legend:
# Type in all cases: in vivo
# quinine (10 mg/kg) = assay: Bitter-duo test (paired comparison, trained panel, nose-clips) with quinine
# Method: (§1) A trained panel was given different samples with the bitter tasting substances caffeine (500 mg/kg), quinine (10 mg/kg) and naringin (100 mg/kg). Caffeine is the bitter principle of coffee and coffee-type beverages, quinine is used as food additive to flavor tonics or energy drinks and naringin is the bitter principle of grapefruit juice. Each test includes a different amount of bitter-masking substances or mixtures thereof. During the tests, the panellists wear nose-clips to exclude any olfactory impressions. These tests are referred to as bitter-duo tests.
# In a first trial, above mentioned bitter samples were mixed with 10 mg/kg eriodictyol-7-O-glucoside at a purity of >95%.
# In a second test, the bitter agents were mixed with 50 mg/kg eriocitrin at a purity of >95% and the bitter-masking effect evaluated by the panel.
# Another trial was set-up using samples with 10 mg/kg quinine and 50 mg/kg eriodictyol (ED) alone or with an inventive flavoring composition containing eriodictyol-7-O-glucoside (EDMG) and neoeriocitrin (NEC) eriocitrin (EC). […] The same effect was observed when using neoeriocitrin instead of eriocitrin. The wt.-% are based on the dry weight of the flavoring composition.
# Other solvents than methanol, mixtures of solvents and different CV ratios can be used in order to achieve the same purification than with methanol as described herein. The column volume ration (CV) is the ratio of column bed volume and volume of solution flowing through column. The product was evaluated by a sensory panel (n=20).
# vegan patty = assay: Blind tasting of vegan patties by a panel (sensory profile)
# Method: A vegan patty has been produced containing the following ingredients: water, leguminose protein isolate, sun flower oil, leguminose protein concentrate, coconut oil, methylcellulose, fiber, salt, starch, lactic acid and sodium diacetate. Water, thickener and starch are mixed with water, pH is adjusted, proteins are added next followed by fibre and oil ingredients. Finally, a taste masking ingredient according to Table 4 is added. The ingredients are thoroughly mixed and the dough is formed to patties. The patties where baked in an oven at 200° C. After cooling the patties, patties were sliced and samples were coded for a blind tasting with a panel.
# caffeine (500 mg/kg) [1] = assay: Pairwise bitter intensity rating (scale 1-100) in water with 500 mg/kg caffeine; conditions: for bitter masking of caffeine solution (in words): 50 mg/kg, 500 mg/kg caffeine; for Bitter intensity [0-100] of base: taste modulator 50 mg/kg in water with 500 mg/kg caffeine
# Method: The said mixture can be compared with further taste modulating compounds to impart taste modulating sensory effects. […] A masking mixture comprising three parts hesperetin, two parts naringenin and two parts of the inventive citrus hydrolysate (55 wt.-% ED, 11.1 wt.-% EDMG, 1.5 wt.-% EC) was tested with 50 mg/kg dosage against naringenin, hesperetin and homoeriodictyol (No. 1-3, Table 5). The compounds and the mixture were all solved in water with added 500 mg/kg caffeine as bitter agent. The panelists were asked to rate the bitter intensity of each sample of one sample pair on a scale of 1-100. […] Said mixtures can be obtained by mixing the inventive citrus hydrolysate with hydrolysates from orange (yielding hesperetin), grapefruit or bergamot (yielding naringenin) or bitter orange and lime among other citrus fruits.
# naringin (100 mg/kg) = assay: Bitter-duo test (paired comparison, trained panel, nose-clips) with naringin
# Method: as §1, with “tests. In a first trial, above mentioned bitter samples were mixed with 10 mg/kg eriodictyol-7-O-glucoside at a purity of >95%. […] In a second test, the bitter agents were mixed with 50 mg/kg eriocitrin at a purity of >95% and the bitter-masking effect evaluated by the panel.” for “tests.”
# caffeine (500 mg/kg) [2] = assay: Bitter-duo test (paired comparison, trained panel, nose-clips) with caffeine
# Method: as §1, with “tests. In a first trial, above mentioned bitter samples were mixed with 10 mg/kg eriodictyol-7-O-glucoside at a purity of >95%. […] In a second test, the bitter agents were mixed with 50 mg/kg eriocitrin at a purity of >95% and the bitter-masking effect evaluated by the panel.” for “tests.”
# [3] = Own taste of eriodictyol-7-O-glucoside at higher concentration; conditions: concentration above 50 mg/kg
# [4] = Table 2, dosage 10 mg/kg in table (text: 50 mg/kg), 20 panelists
# [5] = Table 1, dosage 10 mg/kg, 20 panellists
compound,measurement,setting,value
"O=C1C[C@@H](c2ccc(O)c(O)c2)Oc2cc(O)cc(O)c21 [ED, Eriodictyol]",Bitter masking activity (%),"quinine (10 mg/kg); Table 3, dosage 50 mg/kg, 10 mg/kg quinine, 18-20 panellists",−31.0%
same,taste improving and bitter masking property (in words),vegan patty,improved the taste profile
COc1ccc([C@@H]2CC(=O)c3c(O)cc(O)cc3O2)cc1O [Hesperetin],bitter masking of caffeine solution (in words),caffeine (500 mg/kg) [1],not potent bitter masking compounds
same,Bitter intensity [0-100] of base,caffeine (500 mg/kg) [1],39
COc1cc([C@@H]2CC(=O)c3c(O)cc(O)cc3O2)ccc1O [Homoeriodictyol],Bitter intensity [0-100] of base,caffeine (500 mg/kg) [1],37.5
same,taste improving and bitter masking property (in words),vegan patty,improved the taste profile; also recorded: reduced the bitterness more than eriodictyol
O=C1C[C@@H](c2ccc(O)cc2)Oc2cc(O)cc(O)c21 [Naringenin],bitter masking of caffeine solution (in words),caffeine (500 mg/kg) [1],not potent bitter masking compounds
same,Bitter intensity [0-100] of base,caffeine (500 mg/kg) [1],36.4
"C[C@@H]1O[C@@H](OC[C@H]2O[C@@H](Oc3cc(O)c4c(c3)O[C@H](c3ccc(O)c(O)c3)CC4=O)[C@H](O)[C@@H](O)[C@@H]2O)[C@H](O)[C@H](O)[C@H]1O [eriocitrin, Eriocitrin]",bitter masking effect (in words),"naringin (100 mg/kg); 50 mg/kg, purity >95%",not significant
same,Bitter masking activity (%),naringin (100 mg/kg); [4],0.8%
same,bitter masking effect (in words),"caffeine (500 mg/kg) [2]; 50 mg/kg, purity >95%",not significant
same,Bitter masking activity (%),caffeine (500 mg/kg) [2]; [4],5.6%
same,bitter masking effect (in words),"quinine (10 mg/kg); 50 mg/kg, purity >95%, quinine 10 mg/kg",not significant
same,Bitter masking activity (%),"quinine (10 mg/kg); Table 2, dosage 10 mg/kg in table (text: 50 mg/kg), quinine 10 mg/kg, 20 panelists",−1.6%
O=C1C[C@@H](c2ccc(O)c(O)c2)Oc2cc(O[C@@H]3O[C@H](CO)[C@@H](O)[C@H](O)[C@H]3O)cc(O)c21 [eriodictyol-7-O-glucoside],bitter-reducing effect (in words),"naringin (100 mg/kg); 10 mg/kg, purity >95%",not significant
same,Bitter masking activity (%),naringin (100 mg/kg); [5],−2.59%
same,own taste notes,[3],bitter notes
same,bitter-reducing effect (in words),"caffeine (500 mg/kg) [2]; 10 mg/kg, purity >95%",not significant
same,Bitter masking activity (%),caffeine (500 mg/kg) [2]; [5],−1.94%
same,bitter-reducing effect (in words),"quinine (10 mg/kg); 10 mg/kg, purity >95%, quinine 10 mg/kg",not significant
same,Bitter masking activity (%),"quinine (10 mg/kg); Table 1, dosage 10 mg/kg, quinine 10 mg/kg, 20 panellists",−7.42%
